Entries after “also recorded” stand apart in the source; their conditions may differ. Where two headings read alike, the source gives them in different places.
What was measured:
[1] = target: human AURORA B1–344–INCENP835–903 complex (Homo sapiens, UniProt Q96GD4); test: In vitro kinase assay on AURORA B–INCENP complex, substrate histone H3; format: biochemical
MPS1 [2] = target: T1, MPS1 (Homo sapiens, UniProt P33981); test: In vitro kinase assay on MPS1; format: biochemical; conditions: for MPS1 inhibition in vitro: 1 µM
T1 sequence (P33981 1-857): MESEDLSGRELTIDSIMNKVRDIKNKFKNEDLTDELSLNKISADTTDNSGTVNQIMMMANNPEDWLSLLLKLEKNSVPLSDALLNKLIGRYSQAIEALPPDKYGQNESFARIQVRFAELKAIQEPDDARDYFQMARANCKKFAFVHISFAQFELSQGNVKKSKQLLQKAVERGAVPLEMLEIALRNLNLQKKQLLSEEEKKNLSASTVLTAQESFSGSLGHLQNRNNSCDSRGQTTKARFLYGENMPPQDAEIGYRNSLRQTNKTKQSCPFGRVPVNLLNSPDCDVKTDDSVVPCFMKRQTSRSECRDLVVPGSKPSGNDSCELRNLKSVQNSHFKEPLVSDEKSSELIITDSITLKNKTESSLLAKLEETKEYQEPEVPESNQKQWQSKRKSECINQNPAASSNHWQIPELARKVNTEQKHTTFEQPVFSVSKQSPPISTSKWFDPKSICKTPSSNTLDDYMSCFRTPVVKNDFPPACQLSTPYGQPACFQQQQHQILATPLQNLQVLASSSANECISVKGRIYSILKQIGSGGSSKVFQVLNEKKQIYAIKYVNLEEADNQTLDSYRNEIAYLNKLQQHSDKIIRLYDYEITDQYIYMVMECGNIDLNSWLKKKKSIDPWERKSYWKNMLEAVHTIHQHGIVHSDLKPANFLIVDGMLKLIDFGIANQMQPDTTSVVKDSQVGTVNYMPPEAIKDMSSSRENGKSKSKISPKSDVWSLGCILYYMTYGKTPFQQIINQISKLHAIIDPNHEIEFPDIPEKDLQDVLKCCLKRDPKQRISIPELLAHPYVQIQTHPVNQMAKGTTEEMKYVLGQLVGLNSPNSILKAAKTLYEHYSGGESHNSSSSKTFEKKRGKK

HeLa cells [3] = test: Spindle checkpoint: duration of mitotic arrest, time-lapse video microscopy; format: cell-based, human
[4] = system: P-S10-H3 (AURORA B substrate); test: P-S10-H3 levels by Western blotting in mitotic HeLa cell lysates; format: cell-based, human
HeLa cells [5] = test: Cytokinesis, time-lapse experiment; format: cell-based, human
HeLa cells [6] = test: Chromosome congression / alignment, immunofluorescence; format: cell-based, human; conditions: 100 µM
BUB1 = test: In vitro kinase assay on BUB1; format: biochemical, human
[7] = system: P-S7–CENP-A (AURORA B substrate); test: Kinetochore P-S7–CENP-A levels, immunofluorescence; format: cell-based, human
MPS1 [8] = target: T1, MPS1; test: Kinetochore localization of MPS1, immunofluorescence; format: cell-based; conditions: 0.5 µM; nocodazole
[9] = system: ROD, ZWILCH, ZW10, SPINDLY, MAD1; test: Kinetochore localization of RZZ, SPINDLY and MAD1, immunofluorescence; format: cell-based, human
MAD2 = conditions: 100 nM hesperadin, ref Yang et al., 2009, cited from earlier work
CDK1–CYCLIN B = conditions: 1 µM
HASPIN = conditions: 1 µM
NEK2A = conditions: 1 µM
PLK1 = conditions: 1 µM
PRP4 = conditions: 1 µM
TAO1 = conditions: 1 µM
HeLa cells [10] = conditions: concentrations up to 10 µM; MG132
HeLa cells [11] = conditions: cold treatment
HeLa cells [12] = system: HeLa cells
AURORA B = conditions: HeLa cells
MAPKs = conditions: 1 µM; ref D’Alise et al., 2008; cited from earlier work

Chain of human AURORA B1–344–INCENP835–903 complex (Q96GD4 whole entry): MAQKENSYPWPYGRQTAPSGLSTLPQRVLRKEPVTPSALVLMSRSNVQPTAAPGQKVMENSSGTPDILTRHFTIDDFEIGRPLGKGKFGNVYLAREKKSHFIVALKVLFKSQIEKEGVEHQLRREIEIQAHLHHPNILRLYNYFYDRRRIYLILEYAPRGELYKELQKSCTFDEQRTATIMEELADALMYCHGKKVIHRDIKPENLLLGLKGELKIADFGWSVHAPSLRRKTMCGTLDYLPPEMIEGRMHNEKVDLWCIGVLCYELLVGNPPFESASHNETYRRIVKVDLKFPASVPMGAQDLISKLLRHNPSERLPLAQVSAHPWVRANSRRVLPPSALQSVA
Chain of human AURORA B1–344–INCENP835–903 complex (Q9NQS7 835-903 partner limits assumed): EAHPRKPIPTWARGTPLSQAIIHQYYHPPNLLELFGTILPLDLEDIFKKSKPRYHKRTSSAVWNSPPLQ

Oc1c2ccccc2c2c3c(cccc13)N=N2 [SP600125]
IC50 for AURORA B compared with IC50 for MPS1 [1]: significantly lower | IC50 (MPS1 [2]): ~2500 nM

N#CC(=C(/N)Sc1ccccc1N)/C(C#N)=C(/N)Sc1ccccc1N [U0126]
effect on duration of the spindle checkpoint (HeLa cells [3]; 10 µM): does not affect the duration of the spindle checkpoint

COc1cc2c(Nc3ccc(NC(=O)c4ccccc4)cc3)ncnc2cc1OCCCN1CCOCC1 [ZM447439]
MPS1 inhibition in vitro (MPS1 [2]): did not inhibit | concentration inhibiting P-S10-H3 ([4]; Western blotting): ≤ 500 nM | concentration range in which cytokinesis is impaired (HeLa cells [5]; time-lapse): 0.1 to 0.5 µM

Cc1ccc2c(c1)C(=O)C1(O)CCN(c3ccccc3)C1=N2 (stereo not drawn) [blebbistatin]
effect on chromosome alignment (HeLa cells [6]): did not cause any evident effects; also recorded: does not cause evident perturbations | ability of mitotic HeLa cells to maintain a nocodazole-mediated arrest (HeLa cells [3]; unpublished data): did not significantly affect

CCS(=O)(=O)Nc1ccc2c(c1)/C(=C(/Nc1ccc(CN3CCCCC3)cc1)c1ccccc1)C(=O)N2 [hesperadin]
MPS1 inhibition in vitro (MPS1 [2]): failed to observe significant MPS1 (and BUB1) inhibition | BUB1 inhibition in vitro (BUB1; 1 µM hesperadin): failed to observe significant MPS1 (and BUB1) inhibition | cells with impaired cytokinesis (HeLa cells [5]; 5–10 nM range): 100% | P-S7–CENP-A antigen ([7]; 100 nM): invisible | MPS1 kinetochore staining (MPS1 [8]): prevented kinetochore localization | MAD1 and RZZ complex at kinetochores ([9]; 0.5–1.0 µM, high concentrations of nocodazole, unpublished data): lost from kinetochores | MAD2 at kinetochores (MAD2; high nocodazole (3.2 µM)): retained on kinetochores | MAD2 at kinetochores (MAD2; low nocodazole concentrations): absent from kinetochores

c1nc2nc(Nc3ccc(N4CCOCC4)cc3)nc(NC3CCCCC3)c2[nH]1 [reversine]
effect on BUB1 kinase activity (BUB1; 1 µM): failed to alter the activity | effect on P-S10-H3 ([4]; 0.5 µM): no effects | effect on cytokinesis (HeLa cells [5]; 0.5 µM): does not significantly inhibit | effect on cytokinesis (HeLa cells [5]; 1 µM): unaffected | kinetochore levels of P–CENP-A ([7]; up to 5 µM, nocodazole): not influenced; also recorded: unaltered | spindle checkpoint in the presence of Taxol, STLC or BI2536 (HeLa cells [3]; 500 nM Taxol, 10 µM STLC or BI2536): caused an override of the checkpoint | kinetochore localization of ROD, ZWILCH, ZW10, SPINDLY and MAD1 ([9]; 0.5 µM reversine, 330 nM nocodazole, MG132): largely evicted from kinetochores | MAD1 localization to kinetochores ([9]; nocodazole 0.33 or 3.3 µM): failed to localize to kinetochores | effect on CDK1–CYCLIN B kinase activity (CDK1–CYCLIN B): failed to alter the activity | effect on HASPIN kinase activity (HASPIN): failed to alter the activity | effect on NEK2A kinase activity (NEK2A): failed to alter the activity | effect on PLK1 kinase activity (PLK1): failed to alter the activity | effect on PRP4 kinase activity (PRP4): failed to alter the activity | effect on TAO1 kinase activity (TAO1): failed to alter the activity | inhibition of spindle bipolarization (HeLa cells [10]): did not inhibit | inhibition of kinetochore fiber formation (HeLa cells [11]): did not inhibit | effect on centrosome duplication (HeLa cells [12]): failed to see an effect | kinetochore localization of AURORA B (AURORA B): unaffected | inhibition of MAPKs (MAPKs): not significantly inhibited

COC[C@H]1OC(=O)c2coc3c2[C@@]1(C)C1=C(C3=O)[C@@H]2CCC(=O)[C@@]2(C)C[C@H]1OC(C)=O [wortmannin]
effect on duration of the spindle checkpoint (HeLa cells [3]; 100 nM): does not affect the duration of the spindle checkpoint

— paper PMC2911657 (The Journal of Cell Biology, 2010)
